Source: ChEMBL document CHEMBL1201862, “PubChem BioAssay data set” (2004)
Calls of active or inactive are those of the source.

Key:
[1] = cells; type: functional, cell-based
[2] = luciferase reporter signal reduction – luminescence, H4-C neuroglioblastoma cells, dose response (AID 2458); type: functional, cell-based;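 note: H4 neuroglioblastoma cells stably carrying a luciferase reporter gene fusion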
[3] = system: J774.A1; assay: Confirmation of image-based Screening Assay for Inhibitors of Phagocytosis. [Related pubchem assays (depositor defined):AID1029, AID1643]; type: functional, cell-based; details: Mus musculus
[4] = Luminescence Cell-Based Dose Response HTS to Identify Inhibitors of 5'UTR Stem-Loop Driven Prion Protein mRNA Translation in H4 Neuroglioblastoma Cells. [Related pubchem assays: 1827 (Project Summary), 1813 (Primary HTS)]; type: functional
[5] = system: BJ; assay: cells; type: functional, cell-based; details: Homo sapiens
[6] = toxicity toward HEK293 cells – cell-based, dry powder samples, cytotoxicity control, dose response (AID 720567); type: functional
[7] = HEK-293T viability loss after treatment – luminescence, T-cell screen hits, cytotoxicity control for TCR NF-kB inhibitor project, dose response (AID 489026); type: functional, cell-based;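 note: cells exposed to compound about 14 hours before the viability readout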
[8] = alpha-synuclein stem-loop luciferase translation blockers – H4 neuroglioma cells, luminescence, confirmation (AID 1988); type: functional, cell-based
[9] = system: BJ; assay: BJ-TERT fibroblast viability loss – cell-based, RAS-independent, luminescence, dose response (AID 1933); type: functional; details: Homo sapiens
[10] = alpha-synuclein stem-loop translation blockers – luminescence, H4 neuroglioblastoma cells, dose confirmation, confirmation (AID 2454); type: functional, cell-based;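 note: H4 neuroglioblastoma cells carrying an alpha-synuclein 5'UTR luciferase reporter; potency for inhibition of the luciferase signal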
[11] = system: BJ; assay: BJ-TERT-LT-ST fibroblast viability loss – cell-based, RAS-independent, luminescence, dose response (AID 1935); type: functional; details: Homo sapiens;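 note: BJ fibroblasts immortalized with TERT plus LT and ST oncogenes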
[12] = luciferase reporter signal suppression in cells – H4 neuroglioma cells, luminescence, dose response (AID 1990); type: functional, cell-based
[13] = DRD fibroblast viability loss – cell-based, non-viral oncogenic, luminescence, dose response (AID 1934); type: functional; details: Homo sapiens
[14] = target: ORF 73 (Human herpesvirus 8, UniProt O40947); assay: KSHV LANA DNA-binding disruption – biochemical, fluorescence polarization, cherry-picked samples, dose response (AID 504725); design: species or system Human gammaherpesvirus 8;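 note: fluorescence polarization of a labeled DNA duplex reporting LANA DNA binding; potency is for inhibitors that block LANA binding to the DNA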
Chain of ORF 73 (O40947 whole entry): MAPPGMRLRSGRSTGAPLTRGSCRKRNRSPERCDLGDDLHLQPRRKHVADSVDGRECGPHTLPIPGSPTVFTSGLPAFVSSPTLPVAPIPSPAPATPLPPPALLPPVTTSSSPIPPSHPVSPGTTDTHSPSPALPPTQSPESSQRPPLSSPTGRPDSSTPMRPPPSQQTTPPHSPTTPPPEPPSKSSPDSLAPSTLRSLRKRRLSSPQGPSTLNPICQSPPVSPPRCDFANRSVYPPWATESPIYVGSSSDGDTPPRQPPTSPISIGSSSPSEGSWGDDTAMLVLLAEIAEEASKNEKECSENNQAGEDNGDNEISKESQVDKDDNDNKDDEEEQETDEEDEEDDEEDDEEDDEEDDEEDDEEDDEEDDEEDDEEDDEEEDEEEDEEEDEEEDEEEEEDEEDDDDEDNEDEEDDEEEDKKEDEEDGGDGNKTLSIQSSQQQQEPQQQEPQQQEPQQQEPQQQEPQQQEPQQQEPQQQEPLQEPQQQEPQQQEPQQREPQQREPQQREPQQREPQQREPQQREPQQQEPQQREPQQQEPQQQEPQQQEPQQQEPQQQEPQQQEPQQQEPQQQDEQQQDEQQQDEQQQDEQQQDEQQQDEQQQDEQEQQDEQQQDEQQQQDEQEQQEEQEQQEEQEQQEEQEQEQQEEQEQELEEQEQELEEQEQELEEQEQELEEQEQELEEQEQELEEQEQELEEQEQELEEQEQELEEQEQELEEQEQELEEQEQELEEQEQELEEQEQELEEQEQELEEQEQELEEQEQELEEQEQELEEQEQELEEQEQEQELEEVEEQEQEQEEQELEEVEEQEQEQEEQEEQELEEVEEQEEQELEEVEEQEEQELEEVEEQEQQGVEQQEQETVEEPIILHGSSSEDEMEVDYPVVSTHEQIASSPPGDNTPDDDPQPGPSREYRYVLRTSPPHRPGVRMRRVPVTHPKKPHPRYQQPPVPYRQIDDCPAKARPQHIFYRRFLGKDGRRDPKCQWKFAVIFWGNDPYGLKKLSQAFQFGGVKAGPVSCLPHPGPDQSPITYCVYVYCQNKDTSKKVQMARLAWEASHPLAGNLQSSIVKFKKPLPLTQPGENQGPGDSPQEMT

[15] = target: Glyceraldehyde-3-phosphate dehydrogenase (Homo sapiens, UniProt P04406)
Chain of Glyceraldehyde-3-phosphate dehydrogenase (P04406 whole entry, the tested form may be a part): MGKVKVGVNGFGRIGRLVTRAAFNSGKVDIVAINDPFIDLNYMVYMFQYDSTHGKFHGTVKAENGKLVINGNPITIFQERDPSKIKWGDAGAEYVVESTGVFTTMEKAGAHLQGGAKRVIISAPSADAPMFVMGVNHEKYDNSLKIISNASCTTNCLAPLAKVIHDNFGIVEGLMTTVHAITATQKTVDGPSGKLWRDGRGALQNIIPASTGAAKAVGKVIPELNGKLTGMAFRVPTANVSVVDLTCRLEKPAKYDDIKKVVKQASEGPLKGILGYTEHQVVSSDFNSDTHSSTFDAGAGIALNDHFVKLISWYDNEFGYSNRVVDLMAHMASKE

[16] = target: T1, RNA-binding protein pos-1 (Caenorhabditis elegans, UniProt G5EF15); assay: disruptors of C. elegans POS-1 RNA interaction – biochemical, fluorescence polarization, dose response (AID 1964);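 note: purified POS-1 fused to maltose binding protein made in E. coli; potency of compounds blocking POS-1 binding to fluorescent RNA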
T1 sequence (G5EF15 whole entry): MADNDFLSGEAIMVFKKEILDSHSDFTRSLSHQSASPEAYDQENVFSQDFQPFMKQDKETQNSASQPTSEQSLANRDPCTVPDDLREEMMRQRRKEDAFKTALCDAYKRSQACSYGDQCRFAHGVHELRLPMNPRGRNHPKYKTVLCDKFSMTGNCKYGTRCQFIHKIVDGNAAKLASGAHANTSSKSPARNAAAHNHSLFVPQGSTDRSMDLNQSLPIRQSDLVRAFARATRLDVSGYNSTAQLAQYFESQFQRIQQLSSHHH

[17] = target: Genome polyprotein (dengue virus type 2, UniProt P29990); assay: flavivirus cap methylation enzyme inhibition – biochemical, confirmation dose response, primary screen (AID 588689); type: functional
Chain of Genome polyprotein (P29990 2492-3391 limits assumed): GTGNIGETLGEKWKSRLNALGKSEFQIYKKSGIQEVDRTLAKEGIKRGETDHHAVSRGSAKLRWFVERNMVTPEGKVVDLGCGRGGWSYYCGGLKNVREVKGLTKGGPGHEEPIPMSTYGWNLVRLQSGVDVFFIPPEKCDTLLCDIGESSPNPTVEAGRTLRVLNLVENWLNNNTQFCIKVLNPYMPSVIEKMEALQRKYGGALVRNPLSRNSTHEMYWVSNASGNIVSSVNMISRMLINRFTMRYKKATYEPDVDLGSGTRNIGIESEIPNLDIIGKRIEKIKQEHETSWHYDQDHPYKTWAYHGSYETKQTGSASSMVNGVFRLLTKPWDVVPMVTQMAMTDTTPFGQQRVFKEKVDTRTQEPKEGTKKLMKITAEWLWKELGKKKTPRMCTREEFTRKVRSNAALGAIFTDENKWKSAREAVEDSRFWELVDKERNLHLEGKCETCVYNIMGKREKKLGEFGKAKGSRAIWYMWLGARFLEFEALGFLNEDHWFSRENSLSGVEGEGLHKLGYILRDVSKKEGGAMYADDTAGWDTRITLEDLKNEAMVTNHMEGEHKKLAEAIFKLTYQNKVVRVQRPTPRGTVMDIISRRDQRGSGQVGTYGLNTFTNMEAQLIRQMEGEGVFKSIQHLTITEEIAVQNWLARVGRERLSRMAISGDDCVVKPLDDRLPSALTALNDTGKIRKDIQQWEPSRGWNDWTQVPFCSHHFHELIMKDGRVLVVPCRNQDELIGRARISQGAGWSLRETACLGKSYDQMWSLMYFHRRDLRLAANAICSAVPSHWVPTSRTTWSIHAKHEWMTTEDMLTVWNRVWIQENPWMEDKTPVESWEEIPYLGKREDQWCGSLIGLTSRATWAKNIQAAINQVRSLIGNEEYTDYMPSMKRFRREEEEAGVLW

[18] = target: Heat shock 70 kDa protein 1A (Homo sapiens, UniProt P0DMV8); assay: inhibition of Hsp70 binding activity – biochemical, fluorescence polarization, SAR follow-up (AID 1072)
Chain of Heat shock 70 kDa protein 1A (P0DMV8 whole entry): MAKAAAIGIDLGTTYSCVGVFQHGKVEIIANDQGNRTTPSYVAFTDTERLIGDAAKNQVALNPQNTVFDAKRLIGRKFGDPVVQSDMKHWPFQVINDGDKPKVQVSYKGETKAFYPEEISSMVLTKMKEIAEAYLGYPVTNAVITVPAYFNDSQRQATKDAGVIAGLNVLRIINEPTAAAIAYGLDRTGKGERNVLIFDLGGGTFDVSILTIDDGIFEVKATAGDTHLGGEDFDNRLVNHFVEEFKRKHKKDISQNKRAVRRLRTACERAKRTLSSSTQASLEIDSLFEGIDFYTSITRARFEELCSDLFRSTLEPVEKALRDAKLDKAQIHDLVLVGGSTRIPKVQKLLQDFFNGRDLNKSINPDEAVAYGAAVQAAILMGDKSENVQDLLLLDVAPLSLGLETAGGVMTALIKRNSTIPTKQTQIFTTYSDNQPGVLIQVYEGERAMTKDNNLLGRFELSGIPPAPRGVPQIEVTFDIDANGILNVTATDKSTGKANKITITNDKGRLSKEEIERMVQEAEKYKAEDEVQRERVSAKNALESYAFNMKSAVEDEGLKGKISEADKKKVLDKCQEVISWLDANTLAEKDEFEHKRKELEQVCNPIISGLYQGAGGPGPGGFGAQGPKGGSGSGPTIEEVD

[19] = target: T2, Zinc finger protein mex-5 (Caenorhabditis elegans, UniProt Q9XUB2); assay: potency of MEX-5 RNA-binding blockers – biochemical, C. elegans, fluorescence polarization, dose response (AID 1960)
T2 sequence (Q9XUB2 whole entry): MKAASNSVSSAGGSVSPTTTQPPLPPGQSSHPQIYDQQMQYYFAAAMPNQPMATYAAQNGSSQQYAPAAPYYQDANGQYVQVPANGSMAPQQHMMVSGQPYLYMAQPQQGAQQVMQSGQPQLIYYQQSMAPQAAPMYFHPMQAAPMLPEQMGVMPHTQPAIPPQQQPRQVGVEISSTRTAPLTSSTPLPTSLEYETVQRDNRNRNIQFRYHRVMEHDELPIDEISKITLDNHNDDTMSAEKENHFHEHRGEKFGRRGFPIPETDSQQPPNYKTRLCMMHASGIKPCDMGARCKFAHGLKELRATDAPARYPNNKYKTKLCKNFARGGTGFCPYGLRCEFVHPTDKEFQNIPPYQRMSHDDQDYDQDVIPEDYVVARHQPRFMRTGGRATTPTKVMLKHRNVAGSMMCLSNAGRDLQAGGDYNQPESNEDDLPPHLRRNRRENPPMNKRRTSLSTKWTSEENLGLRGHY

[20] = target: Heat shock cognate 71 kDa protein (Homo sapiens, UniProt P11142); assay: In Vitro Hsc70 Dose Response Fluorescence Polarization Assay. [Related pubchem assays: 1072 ]
[21] = target: T3, Polyadenylate-binding protein 1 (Homo sapiens, UniProt P11940); assay: MLLE domain peptide-binding blockers, IC50 – biochemical, fluorescence polarization, FITC-PAM2 peptide, dose response (AID 602259); type: functional; details: read-out: IC50_Mean
T3 sequence (P11940 whole entry, the tested form may be a part): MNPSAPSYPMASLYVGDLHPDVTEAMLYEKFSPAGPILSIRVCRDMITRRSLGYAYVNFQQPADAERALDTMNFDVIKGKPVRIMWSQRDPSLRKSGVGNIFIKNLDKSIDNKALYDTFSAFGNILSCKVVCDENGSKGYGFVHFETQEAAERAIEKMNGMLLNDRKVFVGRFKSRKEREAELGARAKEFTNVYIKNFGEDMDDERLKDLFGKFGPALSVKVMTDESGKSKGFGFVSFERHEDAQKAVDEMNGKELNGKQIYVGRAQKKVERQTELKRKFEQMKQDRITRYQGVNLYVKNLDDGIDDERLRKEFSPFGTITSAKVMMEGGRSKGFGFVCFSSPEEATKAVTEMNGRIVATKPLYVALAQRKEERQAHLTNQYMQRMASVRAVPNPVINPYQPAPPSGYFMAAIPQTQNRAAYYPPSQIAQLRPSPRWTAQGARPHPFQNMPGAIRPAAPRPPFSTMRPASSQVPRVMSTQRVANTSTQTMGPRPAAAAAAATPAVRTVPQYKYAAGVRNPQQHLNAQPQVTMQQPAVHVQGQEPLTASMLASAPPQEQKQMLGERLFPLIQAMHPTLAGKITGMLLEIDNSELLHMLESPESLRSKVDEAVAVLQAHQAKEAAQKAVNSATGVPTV

[22] = target: NACHT, LRR and PYD domains-containing protein 1 (Homo sapiens, UniProt Q9C000); assay: NALP1 inhibitors in yeast, dose response, luminescent (AID 488860); type: functional
Chain of NACHT, LRR and PYD domains-containing protein 1 (Q9C000 1-1212 limits assumed): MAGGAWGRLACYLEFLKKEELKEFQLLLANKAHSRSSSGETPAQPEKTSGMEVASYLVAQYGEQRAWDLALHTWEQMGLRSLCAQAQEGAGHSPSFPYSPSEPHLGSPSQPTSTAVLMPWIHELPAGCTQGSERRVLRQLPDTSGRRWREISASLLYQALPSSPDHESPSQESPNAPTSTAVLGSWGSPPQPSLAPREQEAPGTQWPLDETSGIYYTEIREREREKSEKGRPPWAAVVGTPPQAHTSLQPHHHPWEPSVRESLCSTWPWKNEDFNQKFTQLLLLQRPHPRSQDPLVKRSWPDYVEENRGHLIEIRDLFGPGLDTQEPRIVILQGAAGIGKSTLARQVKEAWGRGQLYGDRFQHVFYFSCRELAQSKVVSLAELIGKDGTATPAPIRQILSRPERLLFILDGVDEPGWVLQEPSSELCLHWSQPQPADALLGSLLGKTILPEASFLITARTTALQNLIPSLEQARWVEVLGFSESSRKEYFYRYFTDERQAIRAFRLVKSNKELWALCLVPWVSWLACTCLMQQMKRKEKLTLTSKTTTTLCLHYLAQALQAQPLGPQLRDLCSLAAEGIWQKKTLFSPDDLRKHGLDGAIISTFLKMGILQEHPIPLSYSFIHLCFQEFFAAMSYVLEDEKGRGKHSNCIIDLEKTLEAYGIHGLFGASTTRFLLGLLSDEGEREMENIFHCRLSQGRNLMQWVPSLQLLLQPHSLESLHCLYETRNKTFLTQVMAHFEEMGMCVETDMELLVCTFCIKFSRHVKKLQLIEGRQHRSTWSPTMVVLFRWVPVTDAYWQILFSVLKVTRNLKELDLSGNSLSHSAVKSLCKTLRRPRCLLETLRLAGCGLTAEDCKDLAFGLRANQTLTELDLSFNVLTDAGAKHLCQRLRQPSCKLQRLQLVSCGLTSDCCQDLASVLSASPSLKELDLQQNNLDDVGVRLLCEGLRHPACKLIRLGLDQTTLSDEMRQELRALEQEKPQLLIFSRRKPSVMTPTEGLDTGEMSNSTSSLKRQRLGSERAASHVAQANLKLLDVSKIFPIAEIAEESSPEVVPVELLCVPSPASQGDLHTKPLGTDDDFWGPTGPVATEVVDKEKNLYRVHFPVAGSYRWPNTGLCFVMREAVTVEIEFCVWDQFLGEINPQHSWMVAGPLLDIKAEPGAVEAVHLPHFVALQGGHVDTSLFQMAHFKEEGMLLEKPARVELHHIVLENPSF
Chain of NACHT, LRR and PYD domains-containing protein 1 (Q9C000 1213-1473 limits assumed): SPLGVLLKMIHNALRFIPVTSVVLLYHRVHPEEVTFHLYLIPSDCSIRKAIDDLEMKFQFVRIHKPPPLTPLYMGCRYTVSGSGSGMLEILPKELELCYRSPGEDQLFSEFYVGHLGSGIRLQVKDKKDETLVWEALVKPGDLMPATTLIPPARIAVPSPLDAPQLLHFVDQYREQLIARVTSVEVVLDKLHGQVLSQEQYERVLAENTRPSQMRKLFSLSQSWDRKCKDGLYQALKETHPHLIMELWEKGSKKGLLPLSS

[23] = target: T3, Polyadenylate-binding protein 1; assay: MLLE binding blockers, Cy5 peptide tracer – biochemical, fluorescence polarization, Cy5-PAM2 peptide, secondary, miRNA deadenylation inhibitor project, dose response (AID 602260); type: functional; details: read-out: IC50_Mean
[24] = system: Saccharomyces cerevisiae; assay: S. cerevisiae Caspase-1/ASC signal blockers IC50, NALP1 inhibitor project selectivity test (AID 488863); type: functional, organism-based

**Q.** With `Cc1cc(C)cc(C(=O)N2CC(=O)Nc3ccccc32)c1` as the molecule, how does the EC50 [1] read?
**A.** The EC50 was 0.858 µM (active).

**Q.** What about the EC50 [2] of the same molecule?
**A.** Its EC50 is 0.921 µM (active).

**Q.** And the IC50 [3]?
**A.** Its IC50 is 0.161 µM (active).

**Q.** What about the EC50 [4] of the same molecule?
**A.** Its EC50 is < 0.1 µM (active).

**Q.** What about the EC50 [5] of the same molecule?
**A.** The EC50 was 3.38 µM (active).

**Q.** What about the AC50 [6] of the same molecule?
**A.** Its AC50 is > 30 µM (inactive).

**Q.** What about the IC50 [7] of the same molecule?
**A.** Its IC50 is > 80 µM (inactive).

**Q.** What about the EC50 [8] of the same molecule?
**A.** The EC50 was < 0.1 µM (active).

**Q.** And the EC50 [9]?
**A.** Its EC50 is 1.24 µM (inconclusive).

**Q.** What about the EC50 [10] of the same molecule?
**A.** The EC50 was > 12 µM (inconclusive).

**Q.** And the EC50 [11]?
**A.** Its EC50 is 11.5 µM (inconclusive).

**Q.** And the EC50 [12]?
**A.** The EC50 was 1.09 µM (active).

**Q.** And the EC50 [13]?
**A.** The EC50 was 0.817 µM (active).

**Q.** For `CCN(CC)C(=O)c1ccc2c(c1)C1C=CCC1C(C(=O)O)N2` (centres undefined), which AC50 [14] is on record?
**A.** The AC50 was 166 µM (active).

**Q.** And the IC50 [15]?
**A.** Its IC50 is > 100 µM (not active).

**Q.** What about the EC50 [16] of the same molecule?
**A.** The EC50 was 11.2 µM (active).

**Q.** What about the IC50 [17] of the same molecule?
**A.** The IC50 was 86.7 µM (active).

**Q.** What about the IC50 [18] of the same molecule?
**A.** Its IC50 is > 100 µM (not active).

**Q.** What about the EC50 [19] of the same molecule?
**A.** The EC50 was 6.32 µM (active).

**Q.** And the IC50 [20]?
**A.** Its IC50 is > 100 µM (not active).

**Q.** Which results are given for `Cc1ccc(N2C(=O)CC(Sc3ccccc3C(=O)O)C2=O)cc1` (centres undefined)?
**A.** IC50 [21]: > 66 µM (inactive); IC50 [22]: 34.4 µM (active); IC50 [23]: > 66 µM (inactive); IC50 [24]: 20.6 µM (active)
